Assays:
Experiment in all cases: KINOMEscan competition binding
Conditions in all cases: compound 10.0 µM
AURKB (human) = AURKB (human) (UniProt Q96GD4)
BMPR2 (human) = BMPR2 (human) (UniProt Q13873)
BTK (human) = BTK (human) (UniProt Q06187)
CAMKK1 (human) = CAMKK1 (human) (UniProt Q8N5S9)
CDK2 (human) = CDK2 (human) (UniProt P24941)
CDK4 CCND3 (human) = CDK4 CCND3 (human) (UniProt P11802+P30281)
CSNK1A1 (human) = CSNK1A1 (human) (UniProt P48729)
CSNK1G3 (human) = CSNK1G3 (human) (UniProt Q9Y6M4)
CaMK1 (human) = CaMK1 (human) (UniProt Q14012)
EGFR (human) = EGFR (human) (UniProt P00533)
EIF2AK2 (human) = EIF2AK2 (human) (UniProt P19525)
EPHA5 (human) = EPHA5 (human) (UniProt P54756)
ERN1 (human) = ERN1 (human) (UniProt O75460)
FGFR3 (human) = FGFR3 (human) (UniProt P22607)
FYN (human) = FYN (human) (UniProt P06241)
HUNK (human) = HUNK (human) (UniProt P57058)
ICK (human) = ICK (human) (UniProt Q9UPZ9)
IKBKB (human) = IKBKB (human) (UniProt O14920)
LCK (human) = LCK (human) (UniProt P06239)
MAPK11 (human) = MAPK11 (human) (UniProt Q15759)
MAPK8 (human) = MAPK8 (human) (UniProt P45983)
MAPKAPK2 (human) = MAPKAPK2 (human) (UniProt P49137)
NEK1 (human) = NEK1 (human) (UniProt Q96PY6)
NEK11 (human) = NEK11 (human) (UniProt Q8NG66)
NEK2 (human) = NEK2 (human) (UniProt P51955)
NEK9 (human) = NEK9 (human) (UniProt Q8TD19)
NTRK1 (human) = NTRK1 (human) (UniProt P04629)
NUAK2 (human) = NUAK2 (human) (UniProt Q9H093)
PAK7 (human) = PAK7 (human) (UniProt Q9P286)
PIK3C2B (human) = PIK3C2B (human) (UniProt O00750)
PIP5K1C (human) = PIP5K1C (human) (UniProt O60331)
RPS6KA5 KD1 (human) = RPS6KA5 KD1 (human) (UniProt O75582)
RPS6KA5 KD2 (human) = RPS6KA5 KD2 (human) (UniProt O75582)
TNK2 (human) = TNK2 (human) (UniProt Q07912)
VRK2 (human) = VRK2 (human) (UniProt Q86Y07)
PRKACB (human) = PRKACB (human) (UniProt P22694)

Chain of CAMKK1 (human) (Q8N5S9 whole entry, looked up): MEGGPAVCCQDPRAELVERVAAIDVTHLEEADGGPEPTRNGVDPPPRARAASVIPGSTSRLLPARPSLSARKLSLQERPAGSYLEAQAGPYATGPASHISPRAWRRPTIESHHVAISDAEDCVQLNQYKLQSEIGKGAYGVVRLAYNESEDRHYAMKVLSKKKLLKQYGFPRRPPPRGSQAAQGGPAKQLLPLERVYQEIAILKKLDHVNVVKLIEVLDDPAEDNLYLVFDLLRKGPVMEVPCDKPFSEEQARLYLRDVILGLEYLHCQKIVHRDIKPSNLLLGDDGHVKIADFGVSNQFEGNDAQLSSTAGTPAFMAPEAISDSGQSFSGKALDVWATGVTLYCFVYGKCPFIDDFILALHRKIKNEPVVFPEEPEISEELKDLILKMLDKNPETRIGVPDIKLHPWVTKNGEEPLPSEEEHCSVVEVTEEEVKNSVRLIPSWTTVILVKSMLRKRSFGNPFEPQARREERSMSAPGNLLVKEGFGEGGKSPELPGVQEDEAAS
Chain of NEK1 (human) (Q96PY6 whole entry, looked up): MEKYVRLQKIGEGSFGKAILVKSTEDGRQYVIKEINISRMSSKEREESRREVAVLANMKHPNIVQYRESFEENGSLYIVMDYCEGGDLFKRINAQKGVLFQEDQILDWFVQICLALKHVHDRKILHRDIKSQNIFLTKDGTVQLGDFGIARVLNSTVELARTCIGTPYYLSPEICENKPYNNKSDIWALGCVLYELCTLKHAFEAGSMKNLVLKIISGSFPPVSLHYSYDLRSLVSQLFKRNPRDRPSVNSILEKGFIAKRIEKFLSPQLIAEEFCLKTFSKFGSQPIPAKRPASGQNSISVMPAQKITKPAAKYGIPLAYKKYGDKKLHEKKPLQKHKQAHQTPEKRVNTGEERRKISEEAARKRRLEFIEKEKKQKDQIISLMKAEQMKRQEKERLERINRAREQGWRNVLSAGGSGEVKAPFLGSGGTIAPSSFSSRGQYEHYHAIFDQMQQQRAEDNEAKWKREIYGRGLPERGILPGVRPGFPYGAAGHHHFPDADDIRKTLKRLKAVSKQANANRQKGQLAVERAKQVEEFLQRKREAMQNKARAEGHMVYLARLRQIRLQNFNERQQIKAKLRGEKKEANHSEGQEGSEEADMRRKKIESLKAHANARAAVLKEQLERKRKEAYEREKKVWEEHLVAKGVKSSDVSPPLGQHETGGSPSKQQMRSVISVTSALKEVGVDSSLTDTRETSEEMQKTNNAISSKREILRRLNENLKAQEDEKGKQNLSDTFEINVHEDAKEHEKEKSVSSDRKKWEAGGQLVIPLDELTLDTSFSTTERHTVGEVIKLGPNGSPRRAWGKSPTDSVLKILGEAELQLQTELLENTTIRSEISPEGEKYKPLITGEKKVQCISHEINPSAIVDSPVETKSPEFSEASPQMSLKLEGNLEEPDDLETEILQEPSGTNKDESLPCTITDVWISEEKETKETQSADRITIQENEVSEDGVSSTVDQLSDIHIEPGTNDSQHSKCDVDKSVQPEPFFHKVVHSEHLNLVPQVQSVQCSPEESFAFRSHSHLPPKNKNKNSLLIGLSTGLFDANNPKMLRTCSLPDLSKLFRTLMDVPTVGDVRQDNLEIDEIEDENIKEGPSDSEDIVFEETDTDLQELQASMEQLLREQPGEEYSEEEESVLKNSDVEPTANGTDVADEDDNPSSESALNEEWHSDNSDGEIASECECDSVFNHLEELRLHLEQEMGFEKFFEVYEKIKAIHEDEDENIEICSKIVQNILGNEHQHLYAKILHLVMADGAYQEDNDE
Chain of BMPR2 (human) (Q13873 whole entry, looked up): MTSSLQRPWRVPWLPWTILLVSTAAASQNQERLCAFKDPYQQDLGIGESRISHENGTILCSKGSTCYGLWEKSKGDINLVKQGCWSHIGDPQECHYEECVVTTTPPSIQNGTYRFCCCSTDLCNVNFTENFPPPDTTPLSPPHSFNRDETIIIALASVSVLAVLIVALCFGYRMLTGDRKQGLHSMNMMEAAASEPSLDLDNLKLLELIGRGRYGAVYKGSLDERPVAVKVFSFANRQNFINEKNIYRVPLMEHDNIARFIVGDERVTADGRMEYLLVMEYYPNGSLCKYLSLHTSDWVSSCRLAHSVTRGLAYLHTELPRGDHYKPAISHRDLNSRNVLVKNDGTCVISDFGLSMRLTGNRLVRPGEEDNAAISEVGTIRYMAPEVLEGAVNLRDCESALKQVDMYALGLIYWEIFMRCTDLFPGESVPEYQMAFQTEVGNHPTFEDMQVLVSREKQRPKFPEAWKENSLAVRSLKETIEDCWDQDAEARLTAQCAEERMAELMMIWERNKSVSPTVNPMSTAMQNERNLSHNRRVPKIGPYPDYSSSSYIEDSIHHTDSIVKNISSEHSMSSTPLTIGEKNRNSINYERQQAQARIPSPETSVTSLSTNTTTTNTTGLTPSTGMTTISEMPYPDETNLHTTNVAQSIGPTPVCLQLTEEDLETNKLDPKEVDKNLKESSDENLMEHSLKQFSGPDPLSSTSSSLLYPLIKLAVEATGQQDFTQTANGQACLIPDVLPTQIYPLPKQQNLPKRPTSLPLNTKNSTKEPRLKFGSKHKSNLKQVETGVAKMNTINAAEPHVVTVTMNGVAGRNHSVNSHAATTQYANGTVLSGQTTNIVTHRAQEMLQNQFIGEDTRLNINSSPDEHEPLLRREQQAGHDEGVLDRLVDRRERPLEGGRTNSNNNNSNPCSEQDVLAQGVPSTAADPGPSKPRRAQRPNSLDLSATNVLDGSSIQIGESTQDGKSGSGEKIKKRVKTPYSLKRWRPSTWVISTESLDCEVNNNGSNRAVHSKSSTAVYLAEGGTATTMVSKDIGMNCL
Chain of MAPK11 (human) (Q15759 whole entry, looked up): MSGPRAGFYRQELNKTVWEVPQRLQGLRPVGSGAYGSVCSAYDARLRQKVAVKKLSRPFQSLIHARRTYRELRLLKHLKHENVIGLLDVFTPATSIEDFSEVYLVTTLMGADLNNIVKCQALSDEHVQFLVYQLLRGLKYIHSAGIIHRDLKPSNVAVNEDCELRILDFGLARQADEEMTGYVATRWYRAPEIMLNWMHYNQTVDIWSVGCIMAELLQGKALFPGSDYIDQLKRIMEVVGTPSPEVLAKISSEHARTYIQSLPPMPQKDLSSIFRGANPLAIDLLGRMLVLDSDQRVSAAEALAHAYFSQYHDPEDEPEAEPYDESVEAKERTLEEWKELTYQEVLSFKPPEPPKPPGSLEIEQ
Chain of EPHA5 (human) (P54756 whole entry, looked up): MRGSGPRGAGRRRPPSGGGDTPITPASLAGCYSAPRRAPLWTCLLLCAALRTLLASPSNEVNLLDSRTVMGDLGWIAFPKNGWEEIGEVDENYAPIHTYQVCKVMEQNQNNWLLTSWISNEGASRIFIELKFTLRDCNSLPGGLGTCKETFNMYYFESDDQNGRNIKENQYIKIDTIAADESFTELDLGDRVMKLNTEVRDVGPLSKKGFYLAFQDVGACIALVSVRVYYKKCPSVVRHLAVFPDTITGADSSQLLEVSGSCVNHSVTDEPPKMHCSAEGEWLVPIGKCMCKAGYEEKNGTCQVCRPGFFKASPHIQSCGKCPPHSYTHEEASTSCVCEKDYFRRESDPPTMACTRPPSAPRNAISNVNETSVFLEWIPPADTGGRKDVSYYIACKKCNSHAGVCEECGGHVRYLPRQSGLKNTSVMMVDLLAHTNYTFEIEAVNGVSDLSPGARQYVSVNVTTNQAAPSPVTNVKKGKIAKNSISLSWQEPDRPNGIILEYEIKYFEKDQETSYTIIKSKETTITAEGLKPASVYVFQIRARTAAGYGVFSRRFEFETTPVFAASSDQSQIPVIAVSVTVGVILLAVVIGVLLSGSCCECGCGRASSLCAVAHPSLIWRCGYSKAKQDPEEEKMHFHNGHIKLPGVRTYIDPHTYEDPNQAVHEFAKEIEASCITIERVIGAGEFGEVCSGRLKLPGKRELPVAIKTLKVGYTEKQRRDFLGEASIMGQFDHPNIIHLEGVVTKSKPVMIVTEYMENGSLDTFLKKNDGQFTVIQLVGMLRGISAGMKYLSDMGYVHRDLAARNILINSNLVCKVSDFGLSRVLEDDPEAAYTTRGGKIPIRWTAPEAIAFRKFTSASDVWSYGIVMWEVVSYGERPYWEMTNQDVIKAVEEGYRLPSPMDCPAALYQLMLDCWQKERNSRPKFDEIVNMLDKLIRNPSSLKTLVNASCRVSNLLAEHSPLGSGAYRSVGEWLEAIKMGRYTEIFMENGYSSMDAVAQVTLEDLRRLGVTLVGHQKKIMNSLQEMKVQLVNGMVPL
Chain of MAPKAPK2 (human) (P49137 whole entry, looked up): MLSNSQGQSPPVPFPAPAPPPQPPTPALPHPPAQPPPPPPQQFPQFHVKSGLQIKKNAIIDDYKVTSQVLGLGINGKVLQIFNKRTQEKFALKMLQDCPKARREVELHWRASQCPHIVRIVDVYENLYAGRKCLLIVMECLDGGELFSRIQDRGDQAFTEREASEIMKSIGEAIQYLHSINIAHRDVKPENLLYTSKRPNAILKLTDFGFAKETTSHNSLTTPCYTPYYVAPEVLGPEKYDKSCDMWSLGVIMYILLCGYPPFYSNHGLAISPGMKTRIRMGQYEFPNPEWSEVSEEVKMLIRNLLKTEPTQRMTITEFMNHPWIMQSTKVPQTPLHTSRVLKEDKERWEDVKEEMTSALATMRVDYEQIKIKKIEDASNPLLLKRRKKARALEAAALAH
Chain of CSNK1G3 (human) (Q9Y6M4 whole entry, looked up): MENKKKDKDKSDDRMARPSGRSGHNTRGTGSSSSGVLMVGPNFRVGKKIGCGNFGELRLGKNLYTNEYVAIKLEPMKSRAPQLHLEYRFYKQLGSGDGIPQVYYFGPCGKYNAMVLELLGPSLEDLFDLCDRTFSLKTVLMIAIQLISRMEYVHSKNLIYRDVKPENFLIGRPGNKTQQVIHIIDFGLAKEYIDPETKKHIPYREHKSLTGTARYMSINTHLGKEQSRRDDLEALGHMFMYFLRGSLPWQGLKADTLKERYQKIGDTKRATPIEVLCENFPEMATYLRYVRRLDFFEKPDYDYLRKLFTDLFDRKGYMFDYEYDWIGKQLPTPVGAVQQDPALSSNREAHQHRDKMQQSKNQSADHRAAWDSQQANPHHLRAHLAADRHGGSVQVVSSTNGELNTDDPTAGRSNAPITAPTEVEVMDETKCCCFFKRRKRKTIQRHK

Row | Structure (SMILES) | kinase still bound, per cent of control (AURKB (human)) [%] | kinase still bound, per cent of control (BTK (human)) [%] | kinase still bound, per cent of control (CAMKK1 (human)) [%] | kinase still bound, per cent of control (CDK2 (human)) [%] | kinase still bound, per cent of control (CDK4 CCND3 (human)) [%] | kinase still bound, per cent of control (CaMK1 (human)) [%] | kinase still bound, per cent of control (EIF2AK2 (human)) [%] | kinase still bound, per cent of control (EPHA5 (human)) [%] | kinase still bound, per cent of control (ERN1 (human)) [%] | kinase still bound, per cent of control (FYN (human)) [%] | kinase still bound, per cent of control (HUNK (human)) [%] | kinase still bound, per cent of control (ICK (human)) [%] | kinase still bound, per cent of control (IKBKB (human)) [%] | kinase still bound, per cent of control (MAPK11 (human)) [%] | kinase still bound, per cent of control (MAPK8 (human)) [%] | kinase still bound, per cent of control (NEK1 (human)) [%] | kinase still bound, per cent of control (NEK11 (human)) [%] | kinase still bound, per cent of control (NEK2 (human)) [%] | kinase still bound, per cent of control (NEK9 (human)) [%] | kinase still bound, per cent of control (NTRK1 (human)) [%] | further results
1 | CC1=C(C(=O)Nc2cc3cn[nH]c3cc2F)C(c2ccc(C(F)(F)F)cc2)CC(=O)N1 (centres undefined) | 42 | 14 | 72 | 79 | 77 | 93 | 76 | 86 | 71 | 82 | 100 | 79 | 86 | 92 | 85 | 91 | 100 | 100 | 89 | 91 | kinase still bound, per cent of control (BMPR2 (human)): 97%; kinase still bound, per cent of control (CSNK1A1 (human)): 86%; kinase still bound, per cent of control (CSNK1G3 (human)): 90%; kinase still bound, per cent of control (EGFR (human)): 40%; kinase still bound, per cent of control (FGFR3 (human)): 81%; kinase still bound, per cent of control (LCK (human)): 30%; kinase still bound, per cent of control (MAPKAPK2 (human)): 100%; kinase still bound, per cent of control (NUAK2 (human)): 6%; kinase still bound, per cent of control (PAK7 (human)): 79%; kinase still bound, per cent of control (PIK3C2B (human)): 100%; kinase still bound, per cent of control (PIP5K1C (human)): 92%; kinase still bound, per cent of control (RPS6KA5 KD1 (human)): 88%; kinase still bound, per cent of control (RPS6KA5 KD2 (human)): 87%; kinase still bound, per cent of control (TNK2 (human)): 88%; kinase still bound, per cent of control (VRK2 (human)): 87%
2 | CCN1CCN(Cc2ccc(NC(=O)c3ccc(C)c(/C=C/c4cnc5[nH]ccc5c4OC)c3)cc2C(F)(F)F)CC1 | 16 | 0.3 | 100 | 96 | 73 | 30 | 80 | 3.6 | 72 | 1.2 | 18 | 99 | 0.15 | 0 | 19 | 89 | 32 | 100 | 8.4 | 2.5 | kinase still bound, per cent of control (BMPR2 (human)): 6.6%; kinase still bound, per cent of control (CSNK1A1 (human)): 87%; kinase still bound, per cent of control (CSNK1G3 (human)): 48%; kinase still bound, per cent of control (EGFR (human)): 0.4%; kinase still bound, per cent of control (FGFR3 (human)): 1.8%; kinase still bound, per cent of control (LCK (human)): 0.15%; kinase still bound, per cent of control (MAPKAPK2 (human)): 100%; kinase still bound, per cent of control (NUAK2 (human)): 95%; kinase still bound, per cent of control (PAK7 (human)): 100%; kinase still bound, per cent of control (PIK3C2B (human)): 100%; kinase still bound, per cent of control (PIP5K1C (human)): 84%; kinase still bound, per cent of control (PRKACB (human)): 100%; kinase still bound, per cent of control (RPS6KA5 KD1 (human)): 34%; kinase still bound, per cent of control (RPS6KA5 KD2 (human)): 100%; kinase still bound, per cent of control (TNK2 (human)): 0.8%; kinase still bound, per cent of control (VRK2 (human)): 92%
3 | C=CC(=O)Nc1ccc(C(=O)c2sc(Nc3ccc(N4CCN(C)CC4)cc3OC)nc2N)cc1 | 62 | 94 | 3.3 | 75 | 0.55 | 8.2 | 100 | 89 | 7.6 | 83 | 33 | 32 | 85 | 4.1 | 4.2 | 64 | 68 | 100 | 100 | 78 | kinase still bound, per cent of control (BMPR2 (human)): 100%; kinase still bound, per cent of control (CSNK1A1 (human)): 73%; kinase still bound, per cent of control (CSNK1G3 (human)): 24%; kinase still bound, per cent of control (EGFR (human)): 84%; kinase still bound, per cent of control (FGFR3 (human)): 78%; kinase still bound, per cent of control (LCK (human)): 89%; kinase still bound, per cent of control (MAPKAPK2 (human)): 99%; kinase still bound, per cent of control (NUAK2 (human)): 49%; kinase still bound, per cent of control (PAK7 (human)): 71%; kinase still bound, per cent of control (PIK3C2B (human)): 100%; kinase still bound, per cent of control (PIP5K1C (human)): 44%; kinase still bound, per cent of control (PRKACB (human)): 92%; kinase still bound, per cent of control (RPS6KA5 KD1 (human)): 100%; kinase still bound, per cent of control (RPS6KA5 KD2 (human)): 7%; kinase still bound, per cent of control (TNK2 (human)): 82%; kinase still bound, per cent of control (VRK2 (human)): 96%
4 | CC(=O)c1c(C)c2cnc(Nc3ccc(N4CCNCC4)cn3)nc2n(C2CCCC2)c1=O | 48 | 13 | 20 | 20 | 2 | 35 | 30 | 98 | 34 | 100 | 77 | 38 | 80 | 96 | 1.6 | 61 | 31 | 31 | 76 | 6.5 | kinase still bound, per cent of control (NUAK2 (human)): 1%; kinase still bound, per cent of control (PAK7 (human)): 35%; kinase still bound, per cent of control (PIK3C2B (human)): 98%; kinase still bound, per cent of control (PIP5K1C (human)): 35%; kinase still bound, per cent of control (PRKACB (human)): 100%; kinase still bound, per cent of control (RPS6KA5 KD2 (human)): 15%; kinase still bound, per cent of control (TNK2 (human)): 92%
